test: UVA:UVB ratio (radiation absorbed 320-400 nm vs 290-320 nm) of triazine compounds; type: physicochemical; conditions: versus diethylhexyl butamido triazone and ethylhexyl triazone
Excerpt: Typically, the numerical UV-A/UV-B ratio of these compounds, defined as the ratio between the intensity of the radiation absorbed between 320 nm and 400 nm (UVA fraction) and that absorbed between 290 nm and 320 nm (UVB fraction), is greater than 0.20, and preferably greater than 0.30, whereas in the analogous triazine compounds with a 4-aminobenzoate or 4-aminobenzamide substituent different from the substituents described in Formula (IV), it is below about 0.14.
The UVA:UVB ratio is the ratio between the intensity of the radiation absorbed between 320 nm and 400 nm (UVA fraction) and that absorbed between 290 nm and 320 nm (UVB fraction).

UVA fraction relative to triazine analogues already known, at least twice as high:
CCCCC(CC)COC(=O)c1ccc(NC(=O)c2ccc(Nc3nc(Nc4ccc(C(=O)Nc5ccc(C(=O)OCC(CC)CCCC)cc5)cc4)nc(Nc4ccc(C(=O)NC(C)(C)C)cc4)n3)cc2)cc1 (stereo not drawn) [Compound of formula (V)], CCCCC(CC)COC(=O)c1ccc(NC(=O)c2ccc(Nc3nc(Nc4ccc(C(=O)NC(C)(C)C)cc4)nc(Nc4ccc(C(=O)OCC(CC)CCCC)cc4)n3)cc2)cc1 (stereo not drawn) [Compound of formula (VI)], CCCCC(CC)COC(=O)c1ccc(NC(=O)c2ccc(Nc3nc(Nc4ccc(C(=O)OCC(CC)CCCC)cc4)nc(Nc4ccc(C(=O)OCC(CC)CCCC)cc4)n3)cc2)cc1 (stereo not drawn) [Compound of formula (VII)]
